Data published in patent publication US12329738B2, “Urolithin A and a composition containing same for external use in inflammations of various etiologies” (WARSZAWSKI UNIWERSYTET MEDYCZNY, priority 2018, dated 2025).

Experiments:
[1] = test system: IL-8, TNF-alpha and IL-1beta; assay: IL-8, TNF-alpha and IL-1beta production by LPS-stimulated human neutrophils (ELISA); format: cell-based; details: 40 μM (FIG. 12: 5, 10 and 40 μM); LPS 100 ng/mL, 24 h; derivatives compared with urolithin A
Procedure: After isolation, neutrophils were suspended in RPMI 1640 medium supplemented with L-glutamine, HEPES and 10% FBS and incubated with urolithin A and its acylated derivatives (SG1, SG2, SG3, SG4, SG1_m, SG2_m, SG3_m) at a concentration of 40 μM for 1 hour before stimulation with LPS from Escherichia coli (100 ng/mL). After 24 hours, IL-8, TNF-alpha and IL-1beta levels were determined using the immunochemical ELISA method (BD biosciences). The effect on neutrophil viability was assessed using annexin V and propidium iodide staining.
(§1) The obtained results of experiments on in vitro models were analyzed using the Statistica 13 program (StatSoft, Inc., Tulsa, OK, USA) and presented as mean values±SEM. Statistical significance was set at P≤0.05. The results with established normal distribution in the D'Agostin and Pearson test were prepared using analysis of variance (ANOVA). Parametric post-hoc analysis was performed using Dunnett's test.

mRNA for TNF-alpha = assay: TNF-alpha mRNA expression in THP-1 derived macrophages (real time PCR); format: cell-based, human; details: 40 μM; LPS stimulation; FIG. 14
Procedure: (§2) Monocytes of the THP-1 line were cultured in RPMI 1640 medium supplemented with 10% FBS and 2 mM glutamine. For transformation of monocytes into macrophages, the cells were treated with 12.5 ng/mL PMA (phorbol 12-myristate 13-acetate) for 48 hours, then washed and incubated for 24 hours in a culture medium without PMA. After this time, urolithin A, urolithin B, iso-urolithin A and the corresponding glucuronides (GUA, GUB and GiUA) were added to the cells at a concentration of 40 μM. After 1 hour of incubation with the compounds, the cells were stimulated with LPS from Escherichia coli (10 ng/mL).
(§3) To assess the level of TNF-alpha production, the cells were incubated for 6 hours, to assess the expression of mRNA for TNF-alpha, the cells were incubated for 24 hours, to assess the effect on ERK1/2 phosphorylation, the cells were incubated for 35 minutes.
(§4) The level of TNF-alpha in the culture medium was determined using the immunochemical ELISA method (BD biosciences). Evaluation of the expression of mRNA for TNF-alpha was performed using real time PCR. After 24 hours of incubation, RNA was isolated using NucleoSpin RNA Clean-up (Macherey-Nagel). The amount and quality of isolated RNA was determined using 2100 Bioanalyzer (Agilent Technologies). The expression level of mRNA for TNF-α was determined using Brilliant II SYBR Green QPCR Kit and Aria Mx Real-Time PCR thermocycler (Agilent Technologies). The following were used as primers for TNF-alpha: forward: 5′-[…]-3′, reverse: 5′-[…]-3′. Beta-actin (ACTB) was used as the housekeeping gene; primer forward: 5′-[…]-3′, reverse: 5′-[…]-3′).
as §1

skin cells = details: in vitro; cited from earlier work
human fibroblasts = human fibroblasts in vitro; cited from earlier work
TNF-alpha = TNF-alpha production by THP-1 derived macrophages (ELISA); format: cell-based, human; details: 40 μM; LPS stimulation; FIG. 13
Procedure: as §2, §3, §4, §1

[2] = animal model; oral and intravenous administration; cited from earlier work
[3] = test system: Wistar rats (DNCB-induced atopic dermatitis); assay: Peripheral blood morphology in DNCB-induced atopic dermatitis rat model; format: in vivo
Procedure: Wistar rats aged 5-6 weeks (at the start of the experiment) kept under standard conditions with free access to feed and water were used for the tests. The animals were divided into 5 groups, 8 individuals in each group. To prepare 2,4-dinitrochlorobenzene (DNCB) composition inducing inflammation, DNCB was dissolved in 70% ethanol to a final concentration of 1.5% (w/v). Therapeutic composition was an ointment based on white petrolatum with 0.2% or 1.0% urolithin A added. The control ointment was white petrolatum without addition of urolithin A.
The induction of chronic atopic dermatitis involved local 9-fold infiltration with 60 μl 1.5% 2,4-dinitrochlorobenzene (DNCB) on each (external and internal) surface of the right ear over 3 weeks (3 times a week). Negative control was the right ear of rats without induction inflammation.
Treatment of atopic dermatitis with 0.2% or 1.0% urolithin composition and white petrolatum (control) or 1.0% hydrocortisone composition (positive control) was started eight days after sensitization—one day before the fourth application of DNCB. Ointments with appropriate for given group drug added were applied in a total volume of about 20 μl to each ear surface one day before and 6 hours after each DNCB application (for a period of 3 weeks). The negative control group consisted of rats without induced inflammation and treated with white petrolatum in a regimen analogous to the composition of urolithin A or hydrocortisone.
2 mL blood samples were drawn into syringes (containing heparin as an anticoagulant) from the heart under general anesthesia (isoflurane) on day 32 of the experiment. The test was conducted using the DIATRON automated hematology analyzer. Peripheral blood analysis included the assessment of morphotic elements in blood: erythrocytes, leukocytes and thrombocytes and determination of the number and percentage of different types of leukocytes—WBC as well as values of erythrocyte indicators: hemoglobin (HGB), hematocrit (HCT), mean corpuscular volume (MCV), mean corpuscular hemoglobin (MCH) and mean corpuscular hemoglobin concentration (MCHC).
The experimental results obtained were analyzed using the Statistica 7.1 program (StatSoft, Inc., Tulsa, OK, USA) and presented as mean values±SE. Statistical significance was set at P≤0.05. The results with established normal distribution in the D'Agostin and Pearson test were prepared using two- or three-factor analysis of variance (ANOVA). Parametric post-hoc analysis for individual time points was performed using the Bonferroni test.

[4] = day 32, 1% hydrocortisone, urolithin A 0.2 and 1%

O=c1oc2cc(O)ccc2c2ccc(O)cc12 [urolithin A]
Production of proinflammatory cytokines IL-8, TNF-alpha and IL-1beta by human neutrophils [1]: inhibition of the production of proinflammatory cytokines
TNF-alpha mRNA expression in THP-1 derived macrophages (mRNA for TNF-alpha): inhibitory effect on TNF-alpha mRNA expression
Melanin production (skin cells): reduced production of melanin
Collagen synthesis (human fibroblasts): stimulated collagen synthesis
Inhibition of fibroblast aging (human fibroblasts): no inhibition of fibroblast aging was found
mRNA expression for matrix metalloproteinase-1 (human fibroblasts): inhibited the mRNA expression
TNF-alpha production by THP-1 derived macrophages (TNF-alpha): inhibition of pro-inflammatory cytokine TNF-alpha production
Toxicity [2]: no toxicity
WBC (leukocyte) level ([3]; 0.2% composition, day 32, vs petrolatum, p<0.05): reduced WBC values similar to 1% hydrocortisone
WBC (leukocyte) level ([3]; 1% composition, day 32, vs petrolatum, hydrocortisone p<0.05, urolithin A p<0.01): decrease in the WBC level
Final WBC values compared to negative control (without atopic dermatitis) ([3]; 1% hydrocortisone, urolithin A 0.2 and 1%): remained at a higher level compared to negative control groups
WBC growth inhibition compared to 1% hydrocortisone ([3]; 1% urolithin A): did not result in a significantly greater effect of WBC growth inhibition
MPV (fl), PDW (fl), PDWcv (%) ([3]; day 32): did not change
RBC, HGB, HCT, MCV ([3]; day 32): no changes
Concentration of hemoglobin in erythrocytes (MCH and MCHC) ([3]; day 32, 1% hydrocortisone (p<0.05), urolithin A 0.2 and 1.0%): this effect was not seen
Monocyte population [3, 4]: significantly inhibited the increase in the level of all three leukocyte populations
Neutrophil population [3, 4]: significantly inhibited the increase in the level of all three leukocyte populations
Lymphocyte level ([3]; day 32, 1% hydrocortisone, urolithin A 0.2 and 1%, vs petrolatum): significantly inhibited the increase in the level of all three leukocyte populations
